In patent publication US20070172514A1, “Materials and methods for improving livestock productivity” (priority 2006, published 2007):
Marks after values point to notes of the source that are not given here.

Assays:
[1] = system: small-fat-tail sheep; experiment: Enhanced productivity in small-fat-tail sheep; assay type: in vivo; conditions: 35 days
Procedure: In the following example, the test animals were sheep (small-fat-tail sheep). The experiment was performed at the Goat Trial Farm of Beijing Shengshifumin Muslim Food Company during the thirty-five day period from Dec. 2, 2004 to Jan. 5, 2005. In total, 40 heads of small-fat-tail sheep with the average weight of 26.5 kg were randomly divided into Control group (20) and Cysteamine group (20). The control group was fed with basal diet only, while the Cysteamine group was fed a diet that included 900 g cysteamine HCl per tonnage of diet. The standard basal diet of the farm was employed for this trial.

[2] = system: crossbreed sheep; experiment: Enhanced productivity in crossbreed sheep; assay type: in vivo; conditions: 35 days
[3] = system: Ximenta'er hybridizing beef cattle; experiment: Enhanced productivity in beef cattle; assay type: in vivo
Procedure: In the following example, the test animals were beef cattle (Ximenta'er hybridizing beef cattle). The experiment was performed at the Hebei Hengshui Geling Beef Cattle Raising Farm dur the period from Oct. 10 to Dec. 21, 2002. In total, 64 heads of around 350 kg Ximenta'er hybridizing beef cattle were selected and separated into 4 groups randomly according to the principle of equalizing age, weight, grace, fur/hair condition, etc. Each group had 16 heads of beef cattle. The Control Group, Test Group I, II & III were fed a composition comprising 0, 1.5, 3, 6 g/head/day of cysteamine HCl, respectively. As noted in Tables 8, 9, and 10 below, adding a cysteamine compound to the basal diet of beef cattle can increase daily weight gain.

[4] = system: pig intestine villi; experiment: Intestine villi length and histology in pigs; assay type: in vivo, swine; conditions: 30 days
Procedure: 72 piglets were evenly divided into control group and Cysteamine group. The control group was treated with basal diet only, while the Cysteamine group was added with 150 g of cysteamine hydrochloride per ton of feed. The trial was lasted for 30 days.
Immediately after evisceration, tissue samples from the small intestine, large intestine, liver, and pancreas of pigs from each treatment group were collected. The collected samples were placed in properly labeled containers containing 10% buffered neutral formalin solution. The tissue samples were fixed for 78 hours before they were processed for routine histological examination using the paraffin embedding technique (well-known to the skilled artisan).
Sections approximately 5 to 6 μ thick were cut from paraffin blocked tissues using Optical 820 Rotary Microtome (Scientific Instruments Division, Buffalo, N.Y.). Some sections were stained with hematoxylin and eosin (H & E), others with Alcian blue. H & E stained sections were used for the examination of the general histology of the intestinal tract while the Alcian blue stained sections were used for goblet cells identification. The stained sections were examined under various magnifications using a light microscope.
The number and length (μm) of villi in the small intestine were counted per microscopic field; the thickness of the tunica muscularis in the small and large intestine were measured using American Optical Micrometer (American Optical Company, Buffalo, N.Y.) calibrated in millimeters. The mucosal folds in the large intestine, the density of intestinal glands (crypts), the appearance of the surface epithelium were all observed. The general histology of the liver and pancreas were examined and compared between Cysteamine treated and non-Cysteamine treated groups. Goblet cell density in the Cysteamine treated and non-Cysteamine treated pigs was compared through visual examination using light microscope.

[5] = system: D×L×M weanling piglets; experiment: Enhanced growth in swine: weanling piglets fed cysteamine hydrochloride; assay type: in vivo; conditions: 30 days; for ADG, Improvement (%): (text: 90 g per ton of feed), hydrochloride
Excerpt: Total of 100 heads of unhealthy D×L×M weanling piglets (approx. 6.78 kg) were divided into 2 groups—Control group (50 heads) & Cysteamine group (50 heads). The Control group was fed with basal diet. […]

[6] = system: pregnant pig sow; experiment: Enhanced productivity in swine: pregnant sows fed cysteamine hydrochloride; assay type: in vivo, swine (D×L×M hybrid swine); set-up: Live piglet born rate, Improvement / Live piglet born rate, Improvement (%) / Birth weight per litter, Improvement: dose or concentration left out as unconfirmed; conditions: for Birth weight per litter, Improvement (%) / Birth weight per piglet, Improvement (%) / Body weight of weaned piglet, Improvement (%): hydrochloride
Excerpt: A total of 14 heads of pregnant pig sow (which were the offspring of Duroc×Landrace×Meishan swine, also referred to herein as D×L×M hybrid swine) (84 days of pregnant) were divided into 2 groups: Control group (6) and Cysteamine group (8). The Control group was fed with basal diet. […]

[7] = system: fattening pigs; experiment: Carcass composition/appearance of fattening pigs; assay type: in vivo, swine
Procedure: 72 piglets were divided evenly into control group and Cysteamine group. The control group was treated with basal diet while the Cysteamine group was treated with basal diet added with 150 g cysteamine hydrochloride per ton of feed. Upon reaching the market weight of 85-90 kg, five animals from each treatment were slaughtered after fasting for one day. During slaughter, the animals were stunned with a stunning gun, bled, dehaired and eviscerated. The carcass was split […] and then chilled for 24 hours prior to fabrication. The slaughter and the chilled carcass weights were recorded. The chilled carcass weight expressed as percentage of the slaughter weight represents the dressed yield. The wholesale and retail cuts of each animals were weighed and recorded. The values were expressed as the percentage of the live weight and of the chilled carcass weight.
The area of the longissimus dorsi (LD) muscle was measured on the 12th rib of the right part of the carcasses. This was done by tracing the outline of the whole LD muscle on acetate paper and the area was measured with the use of a grading method.

[8] = feed consumption, 20 head, 900 g/tonnage
[9] = in words, 900 g cysteamine HCl per tonnage of diet
[10] = relative to control, 900 g/tonnage
[11] = Test III, 6 g/head/day, p<0.05 vs Control
[12] = in words, 150 g per ton of feed
[13] = vs control, 90 g cysteamine hydrochloride per ton of feed
[14] = late phase pregnant sow, (text: 150 g per ton feed)
[15] = relative to control, (text: 150 g per ton feed)
[16] = relative to control, Dosage (text: 150 g per ton feed)
[17] = 150 g per ton of feed, slaughter at 85-90 kg

Cl.NCCS [Cysteamine HCl, cysteamine hydrochloride]
Total feed consumption ([1]; 20 head, 900 g/tonnage): 1019.38 kg
Final weight ([1]; Dosage 900 g/tonnage): 28.92 kg/head
Weight gain ([1]; Dosage 900 g/tonnage): 3.350 kg/head
daily weight gain ([1]; Dosage 900 g/tonnage): 95.71 g/head/day
Concentrate [1, 8]: 245 kg
Hay [1, 8]: 350.00 kg
Silage [1, 8]: 424.38 kg
ADG vs control [1, 9]: statistically significant increase
Daily weight gain, Improvement (%) [1, 10]: 30.9%
Silage, Improvement (%) [1, 10]: −16.22%
Weight gain, Improvement (%) [1, 10]: 30.9%
Total feed consumption ([2]; 20 head, 900 g/tonnage): 1001.2 kg
ADG ([2]; Dosage 900 g/tonnage): 82.29 g/head/day
Final weight ([2]; Dosage 900 g/tonnage): 29.59 kg/head
Weight gain ([2]; Dosage 900 g/tonnage): 2.88 kg/head
Concentrate [2, 8]: 245 kg
Hay [2, 8]: 350.0 kg
Silage [2, 8]: 406.2 kg
ADG vs control [2, 9]: statistically significant increase
ADG, Improvement (%) [2, 10]: 46.2%
Silage, Improvement (%) [2, 10]: −5.14%
Weight gain, Improvement (%) [2, 10]: 46.2%
daily weight gain ([3]; Test Group III, 6 g/head/day, p<0.05 vs Control, Test Group I & II): 1.217 kg
Feed Conversion Rate (FCR), Concentrated feed ([3]; Test I, 1.5 g/head/day): 3.54
Feed Conversion Rate (FCR), Corn Silage ([3]; Test I, 1.5 g/head/day): 14.14
Feed Conversion Rate (FCR), Raw Grass ([3]; Test I, 1.5 g/head/day): 1.21
Final Wt. ([3]; Test I, 1.5 g/head/day): 423.8 kg
Feed Conversion Rate (FCR), Concentrated feed ([3]; Test II, 3 g/head/day): 3.70^a
Feed Conversion Rate (FCR), Corn Silage ([3]; Test II, 3 g/head/day): 14.42^a
Feed Conversion Rate (FCR), Raw Grass ([3]; Test II, 3 g/head/day): 1.27^a
Final Wt. ([3]; Test II, 3 g/head/day): 420.5 kg
Feed Conversion Rate (FCR), Raw Grass ([3]; Test III, 6 g/head/day): 1.06^a
Final Wt. ([3]; Test III, 6 g/head/day): 432.7 kg
Feed Conversion Rate (FCR), Concentrated feed [3, 11]: 3.09^b
Feed Conversion Rate (FCR), Corn Silage [3, 11]: 12.87^b
Villi Length, Small Intestines ([4]; 150 g of cysteamine hydrochloride per ton of feed, same letter as Non-Cysteamine (p>0.05), unit only in method b111): 2.15 ± 0.09^A μm
goblet cells in the small and large intestine vs non-Cysteamine-treated [4, 12]: noticeably larger and highly distended
length of small intestinal villi vs non-Cysteamine treated [4, 12]: longer
number of small intestinal villi vs non-Cysteamine treated [4, 12]: more numerous
Total feed consumption ([5]; 50 head): 1076.1 kg
Total final weight ([5]; 50 head): 973 kg
Total weight gain ([5]; 50 head): 633 kg
Daily feed consumption [5]: 717.4 g/head
Weight gain [5]: 12.66 kg/head
ADG ([5]; average daily weight gain): 422 g/head
Total feed consumption, Improvement ([5]; difference vs control, 50 head): +66.3 kg
Total final weight, Improvement ([5]; difference vs control, 50 head): +75 kg
Total weight gain, Improvement ([5]; difference vs control, 50 head): +72.5 kg
ADG, Improvement ([5]; difference vs control): +48 g/head
Daily feed consumption, Improvement ([5]; difference vs control): +44.2 g/head
FCR, Improvement ([5]; difference vs control): −0.1
Final Wt., Improvement ([5]; difference vs control): +1.5 kg/head
Weight gain, Improvement ([5]; difference vs control): +1.45 kg/head
FCR ([5]; feed conversion rate): 1.70
Diarrhea ([5]; of 50 head): 21 head
Diarrhea, Improvement (%) ([5]; relative to control): −43.24%
FCR, Improvement (%) ([5]; relative to control): −5.56%
ADG, Improvement (%) ([5]; relative to control, listed as Cysteamine): 12.83%
ADG, Improvement (%) ([5]; relative to control, listed as cysteamine hydrochloride): 12.83%
decrease in feed conversion rate (FCR) [5, 13]: 5.56%
improvement in diarrhea condition [5, 13]: 43.24%
Final Wt. ([5]; weanling piglets, Treatment (text: 90 g cysteamine hydrochloride per ton of feed)): 19.46 kg/head
Birth weight per litter, Improvement ([6]; difference vs control): 2.50 kg
Birth weight per piglet, Improvement ([6]; difference vs control): 0.23 kg/head
Live piglet born rate, Improvement ([6]; difference vs control): 0.00%
Body weight of weaned piglet, Improvement ([6]; difference vs control, weaning age 19 days): 0.46 kg/head
Total piglet born ([6]; late phase pregnant sow, 8 sows, Dosage (text: 150 g cysteamine hydrochloride per ton feed), from 84 days of pregnant to weaning): 82 head
Total live piglet born ([6]; late phase pregnant sow, 8 sows, Dosage (text: 150 g per ton feed)): 82 head
Birth weight per litter [6, 14]: 21.32 kg
Birth weight per piglet [6, 14]: 2.08 kg/head
Live piglet born per litter [6, 14]: 10.29 head
Live piglet born rate [6, 14]: 100.00%
Piglet born per litter ([6]; late phase pregnant sow, Dosage (text: 150 g per ton feed), from 84 days of pregnant to weaning): 10.29 head
Live piglet born rate, Improvement (%) ([6]; relative to control): 0.00%
Birth weight per litter, Improvement (%) [6, 15]: 13.28%
Birth weight per piglet, Improvement (%) [6, 15]: 12.43%
Birth weight per litter, Improvement (%) [6, 16]: 13.28%
Birth weight per piglet, Improvement (%) [6, 16]: 12.43%
Body weight of weaned piglet, Improvement (%) ([6]; relative to control, weaning age 19 days, listed as Cysteamine): 8.00%
Body weight of weaned piglet, Improvement (%) ([6]; relative to control, weaning age 19 days, listed as cysteamine hydrochloride): 8.00%
Body weight of weaned piglet ([6]; weaning age 19 days, Dosage (text: 150 g per ton feed)): 6.21 kg/head
Dressing % ([7]; 150 g cysteamine hydrochloride per ton of feed, slaughter at 85-90 kg, five animals): 69.012%
Lean:Fat Ratio [7, 17]: 0.105
Loin Eye Area [7, 17]: 4.850 sq.cm
Backfat Thickness ([7]; 150 g per ton of feed, slaughter at 85-90 kg, P < 0.05 vs Non-Cysteamine HCl): 1.91^a cm
backfat vs pigs fed diet without cysteamine hydrochloride ([7]; in words): significantly thinner
differences in dressing percentage, loin eye area, and lean:fat ratio vs diet without cysteamine hydrochloride ([7]; in words): no significant differences
loin cut and lean trimmings as a percent of the live-weight vs diets without cysteamine hydrochloride ([7]; in words): significantly higher
